Holding throughout (format): cell-based, human
The subject of assay [1] is in vitro hNMJ culture (myotubes). As to the kind of experiment: Calcium imaging of in vitro hNMJ. The note with it: day 20 of NMJ differentiation, Ca imaging at five ROIs. Here is the method: MyoD-201B7 cells were seeded at a density of 2.2×10^4 cells/well and differentiated into NMJs in a Costar 96-well black-wall/clear-bottom plate. On day 20, the growth medium was removed, and 100 μL Fluo-8 recording medium was added to the cells at 37° C. for 1 hour. The cells were washed twice with PBS and then imaged on In Cell Analyzer 2000. The fluorescence intensity was expressed as the F/F0 ratio.
MyoD-201B7 cells were seeded onto a Matrigel-coated, 96-well black-wall/clear-bottom plate at a density of 2.2×10^4 cells/well. Half of the medium in each well was exchanged every day until the cultures started contracting. The growth medium was removed, and cells were loaded with 100 μL Fluo-8 recording medium at 37° C. for 1 hour. The cells were washed twice with PBS and then the differentiation medium was added to the wells. Ca oscillations were monitored with the FDSS microplate reader, data points were collected at 1-minute intervals, and the data points were analyzed using FDSS software for frequency and amplitude quantification.

The test system is the same in assay [2]. As to the kind of experiment: Motion vector analysis of myotube contraction in in vitro hNMJ. Conditions: day 20 of NMJ differentiation. As to the method:
(§1) MyoD-201B7 strain was subjected to myogenic differentiation according to the procedure described in Tanaka et al., PLOS ONE 2013. Specifically, MyoD-201B7 cells were seeded on a Matrigel-coated plate, and myogenic differentiation was induced by adding 1 μg/mL of doxycycline to myogenic differentiation medium (10% KSR+αMEM). Ten days after the addition of doxycycline, neural differentiation was induced by changing the medium to Neurobasal medium supplemented with neurotrophic factors (BDNF, GDNF, and NT3; 10 ng/ml each, R&D Systems). The medium was then replaced every 3 to 4 days to continue culturing.
Using α7s ILCE-7S (Sony Corporation), phase-contrast images using a red-filtered optical source and fluorescence (Fluo8, green) were continuously captured at 15 fps. Using the SI8000 Cell Motion Imaging System (Sony Corporation), which provides motion vector analysis based on the block matching method, motion quantification with the red-separated images in regions of interest (ROIs) and brightness analysis with the green-separated images were performed.
Both moving image capture and motion analysis were performed at 38 fps using the SI8000 Cell Motion Imaging System (Sony Corporation).

The test system of the next assay is in vitro hNMJ culture. Put plainly: Contribution of agrin to the in vitro NMJ system (NMJ area, TEM). The note with it: long-term culture. Here is the method:
as §1
NMJ cultures were pre-fixed in 2% paraformaldehyde and 2% glutaraldehyde in 0.1 M phosphate buffer (pH 7.4) at 4° C. overnight. Post-fixation was done in 1% osmium tetroxide solution for 1 hour at room temperature. The samples were dehydrated in ethanol (30%, 50%, 70%, 90%, 95%, and 100%) and embedded in Epon resin. Ultrathin sections (80 nm) were cut and stained with uranyl acetate and alkaline lead citrate. The specimens were examined with a transmission electron microscope (H-7650, Hitachi, Ltd.).
Image analysis and quantification were performed by MetaMorph software (Molecular Devices, LLC. USA).

The subject of assay [3] is hNMJ culture expressing ChR2-EYFP. As to the kind of experiment: Motion analysis of in vitro hNMJ culture by photoactivation (ChR2-EYFP). The note with it: day 100 of NMJ differentiation. As to the method: The plasmid deposited at Addgene by Karl Deisseroth was purchased and used as a plasmid containing a photoactivation domain (pLenti-Synapsin-hChR2 (H134R)-EYFP-WPRE, Addgene plasmid number 20945). The lentivirus transduction system (ViraPower hiperform lentivirus expression system, Invitrogen) was used to transduce the target gene into neural cells. NMJ cultures were treated with virus-containing medium at 37° C. for 48 hours with 5% CO2. After virus infection, the medium was removed and the Neurobasal medium was added for target gene expression. The medium was changed every 3 to 4 days. EYFP expression was examined by confocal microscopy with proper optical settings. Photoactivation was performed with at 488-nm laser wavelength. In addition to EYFP signals, bright-field images were captured simultaneously for muscle movement analysis.

“Also recorded” adds a separate entry of the source.

As to `[Ca+2]` [Ca^2+, calcium], the “excitation of myotubes (transient Ca2+ elevation)” value in assay [1] was “enhanced”.

Take `O=C1CN(/N=C/c2ccc(-c3ccc([N+](=O)[O-])cc3)o2)C(O)=N1` [dantrolene]: the “spontaneous synchronized contraction-like movement of myotubes” value in assay [2] is reported as “inhibited”.

With agrin, in the assay on in vitro hNMJ culture, the “area of the NMJ (ratio of NMJ region)” value is “increased”; the “morphology of myotubes and axon terminals by TEM” value is given as “Myotube was well confined at fold of junction that bounds axon terminal”.

In the case of curare, the “excitation of myotubes (transient Ca2+ elevation)” value in assay [1] was “reduced; also recorded: stopped”. The “muscle contraction triggered by blue light (488 nm)” value in assay [3] is recorded as “inhibited”.

Values taken from patent US20210363496A1, “METHOD FOR OBTAINING ARTIFICIAL NEUROMUSCULAR JUNCTION FROM PLURIPOTENT STEM CELLS” (KYOTO UNIVERSITY, priority 2017, published 2021).
